In patent US6734161B1, “Peptide nucleic acids having antibacterial activity” (priority 1997, dated 2004):
{LysNH2} = C-terminal lysine amide

How the values were obtained:
[1] = system: E. coli lac repressor gene (start codon region); experiment: PNA-mediated upregulation of beta-galactosidase on X-gal LB/agar plate; type: cell-based; settings: lawn of E. coli AS19 on LB/agar with X-gal
Description: An antisense PNA (H-[…]-Lys-NH2, SEQ ID No: 27) was prepared targeting the start codon region of the E. coli lac repressor gene. The lacR gene normally limits beta-galactosidase expression in E. coli cells that are grown in nutrient rich conditions, without lactose. The anti-lacR PNA (SEQ ID No: 27) was applied to a lawn of E. coli AS19 cells grown on a LB/agar plate containing a chromogenic beta-galactosidase substrate (X-gal). The petri plate was prepared as described above.

[2] = system: β-lactamase (start codon region); type: biochemical, E. coli; settings: for IC50: read-out: PNA concentration required for 50 % inhibition (IC50) of β-lactamase activity, S-30 cell extract, unmodified gene
β-lactamase = settings: for inhibition of β-lactamase production in strain carrying two base substitutions: AS19 transformed with pLac-2, compared with pBR322; for inhibition of β-lactamase production in strain carrying 6 base substitutions: AS19 transformed with pLac-6
Description: The cultures were grown at 37° C. to approximately 0.5 O.D. 550 nm. β-Lactamase activity was determined using the chromogenic β-lactamase substrate PADAC (Calbiochem, San Diego, Calif.) and absorbance measurements at 570 nm (Kobayashi, et al., Antimicrob. Agents Chemotherap., 1988, 32, 1040). β-Galactosidase activity was determined using the substrate o-nitrophenyl-β-galactoside (ONPG) and absorbance measurements at 420 nm as described previously (Miller, J. H., Experiments in Molecular Genetics, 1972, Cold Spring Harbor, N.Y., 1972, 82-85).
The cultures were grown at 37° C. to approximately 0.5 O.D. 550 nm.
The activity of PNAs in an in vivo assay was determined. […] 5-8 were included in cultures of permeable E. coli strain AS19 (Sekiguchi, ibid.) and the expression of β-galactosidase and β-lactamase was measured in cells exposed to IPTG at various time points.
The inhibition of β-lactamase production was evaluated by growing cells in the presence of PNA from an early stage to mid log phase.
The in vivo specificity of selected PNAs (SEQ ID NOs. 6 and 7) was determined using E. coli AS19 that was transformed with pBR322 and its derivatives containing the target site mutations (pLac-2 and pLac-6).

[3] = system: β-Galactosidase (start codon region); experiment: in vitro coupled transcription/translation in E. coli S-30 cell extract, β-galactosidase production; type: biochemical
Description: (§1) Strain D10-1 was grown to mid log phase in LB media supplemented with 4 g/L glucose. The preparation of S-30 cell extracts and coupled transcription/translation reactions were carried out as described in Ellman, J., ibid., using plasmid pMAS2, which carries the E. coli gene for β-galactosidase.
PNA oligomers (SEQ ID NOs. 5-8 above) were evaluated in an in vitro assay in which plasmid DNA encoding the genes for β-galactosidase and β-lactamase were added to a template depleted e. coli S-30 cell extract along with the reagents necessary for coupled transcription and translation (Chen, H. Z., Zubay, G., Methods in Enzymol., 1983, 101, 674-690; Ellman, J., et al., Methods in Enzymol., 1991, 202, 301-337). The assay is sensitive to inhibitors that prevent initiation of translation.

Ribosomal RNAs [4] = experiment: cell-free translation assay (β-galactosidase production) with PNA targeted to ribosomal RNAs; type: biochemical, E. coli; settings: S-30 cell extract, ONPG
Description: as §1
Plasmid DNA encoding β-galactosidase was added to a template depleted E. coli S-30 cell extract along with the reagents necessary for coupled transcription/translation (Chen, ibid; Ellman, J., ibid). Production of β-galactosidase was measured […] using the substrate ONPG (Miller, ibid). The assay is sensitive to inhibitors that prevent complete or accurate translation of the enzyme. Several of the targeted PNAs inhibited β-galactosidase production in a dose dependent manner, with IC50s in the nanomolar range. […] The SEQ ID Nos. and the sequences are shown below in Table 2.
PNAs of similar composition, but unrelated sequence, were assayed along with targeted PNAs as controls for non-sequence specific effects. […] No inhibition was detected at a dose of 1 μM for the control PNAs.

Ribosomal RNAs [5] = experiment: transcription vs. translation assay (32P-UTP and 35S-methionine incorporation); type: biochemical, E. coli; settings: increasing concentrations of PNA
Description: Transcription in the cell-free system was assayed using reactions that contained 34 μM of cold UTP and 1 μCi ^32P-UTP. After 30 minutes the reactions were stopped with 10 volumes of 5% TCA and incubated on ice for 30 minutes. Translation in the cell-free system was assayed using reactions that contained 5 mM cold UTP and 1 μCi ^35S-methionine. After 30 minutes the reactions were stopped with an equal volume of 1 M NaOH and placed at 37° C. for 15 minutes. An equal volume of cold 50% TCA containing 2% casein hydrolysate acids was added and after 30 minutes on ice, 1 mL of 5% TCA was added. The TCA precipitable material having radioactivity was collected by vacuum filtration, rinsed five times with 5% TCA and dried. Cerenkov and scintillation counting were used to determine ^32P-UTP and ^35S-methionine incorporation.
The transcription and translation activities yielding β-galactosidase was examined using ^32P-UTP and ^35S-methionine in the assay procedures of Example 5. With increasing concentrations of targeted PNA (SEQ ID NOs. 12 and 13), the level of radioactive methionine incorporation was reduced.

E. coli strain K12 = experiment: cell growth assay using E. coli (K12); settings: 2 μL applied onto solid media, overnight 37° C.
Description: Growth assays were initiated using Luria Broth (LB) Media inoculated with 1% (v/v) of an overnight E. coli culture. For solid media cultures, 2 mL of molten LB/agar media was inoculated and spread onto pre-warmed (LB)/agar plates. The excess molten media was poured off and the plates were left to solidity for 30 minutes. PNA and antibiotic solutions were pipetted (2 μL) directly onto the solidified overlay and the plates were incubated overnight at 37° C. For liquid media cultures, 100 μL of inoculated LB media was aliquoted into microtitre plate wells containing PNA or antibiotic solutions and the plates were incubated overnight at 37° C. The presence or absence of growth was assessed visually as a zone of clearing on solid media or as a lack of turbidity in liquid cultures.
The inhibition of cell growth was examined using PNA sequences 9-18 in E. coli grown on agar media. Luria broth (LB)/agar plates were prepared with a thin overlay of media containing an inoculum of E. coli strain K12. PNA solutions were applied directly onto the solidified overlay by direct pipetting of 2 μL aliquotes. After overnight incubation at 37° C., a lawn of bacterial cells was established.

[6] = system: E. coli mutant strain (AS19); experiment: cell growth assay using E. coli (AS19); settings: 100 μL liquid cultures
Description: Growth assays were initiated using Luria Broth (LB) Media inoculated with 1% (v/v) of an overnight E. coli culture. […] For liquid media cultures, 100 μL of inoculated LB media was aliquoted into microtitre plate wells containing PNA or antibiotic solutions and the plates were incubated overnight at 37° C. The presence or absence of growth was assessed visually as a zone of clearing on solid media or as a lack of turbidity in liquid cultures.
The assay was repeated with the cells in 100 μL liquid cultures. […] The inhibition was determined to be that concentration which visibly limited the growth of the E. coli in a 100 μL culture.

[7] = concentrations as high as 400 nM

27 (ACATTCACCACCCTG; all peptide nucleic acid (PNA), 3' {LysNH2}; further chemistry not fully specified) [compound 27]
beta-galactosidase production (blue zone at sites of application) [1]: Increased beta-galactosidase production

7 (GAATACTCATACTCT; chemistry not given here) [compound 7]
IC50 [2]: 200 nM | inhibition of β-lactamase production in strain carrying two base substitutions (β-lactamase): reduced | inhibition of β-lactamase production in strain carrying 6 base substitutions (β-lactamase): abolished

8 (ACGCCACATCTTCGC; chemistry not given here) [compound 8]
inhibition of β-galactosidase production [3, 7]: no inhibition | inhibition of β-lactamase production [2, 7]: no inhibition

12 (TTNTNNNTTTNTNTCTTTCCGTCTT; listed as DNA, chemistry not given here) [compound 12]
IC50 (Ribosomal RNAs [4]): 200 nM | level of radioactive UTP (transcription) (Ribosomal RNAs [5]): remained the same | level of radioactive methionine incorporation (translation) (Ribosomal RNAs [5]): reduced | growth inhibition (zones of clearing) (E. coli strain K12): inhibited cell growth | concentration which visibly limited growth [6]: 30 µM

13 (NTNTNNTNTCCTCTC; listed as DNA, chemistry not given here) [compound 13]
IC50 (Ribosomal RNAs [4]): 350 nM | level of radioactive UTP (transcription) (Ribosomal RNAs [5]): remained the same | level of radioactive methionine incorporation (translation) (Ribosomal RNAs [5]): reduced | growth inhibition (zones of clearing) (E. coli strain K12): inhibited cell growth | concentration which visibly limited growth [6]: 10 µM

5 (GGTCATAGCTGTTTC; all peptide nucleic acid (PNA), 3' {LysNH2}; further chemistry not fully specified) [compound 5]
IC50 ([3]; read-out: PNA concentration required for 50 % inhibition (IC50) of β-galactosidase activity, S-30 cell extract, coupled transcription and translation): 10 nM

6 (TACTCATACTCTTCC; chemistry not given here) [compound 6]
IC50 [2]: 30 nM | inhibition of β-lactamase production in strain carrying two base substitutions (β-lactamase): reduced | inhibition of β-lactamase production in strain carrying 6 base substitutions (β-lactamase): abolished
